Data: US20260055104A1, “CRYSTAL FORM OF HETEROARYL DERIVATIVE PARP INHIBITOR AND USE THEREOF” (priority 2022, published 2026)

Columns and labels:
[1] = Stability test of crystal form (purity by HPLC); format: physicochemical
Description: Samples were taken and tested at 92.5% RH, 40° C. and 60° C. respectively. The purity (represented by a percentage) was detected by HPLC.
With regard to methods for preparing test solutions and conditions for detecting purity by HPLC, reference was made to Tables 13 and 14.

[2] = system: Human breast cancer cells MDA-MB-436; experiment: MDA-MB-436 cell activity test (CellTiter-Glo); format: cell-based; settings: 168 h, MDA-MB-436, 7 days incubation
Description: On day 1, the cells in the exponential growth phase were collected, and the cell suspension was adjusted to 4000 cells/135 μL with the culture medium. 135 μL of the cell suspension was added to each well of a 96-well cell culture plate and incubated overnight. On day 2, compounds at different concentrations were added, and the plate was placed in the incubator and incubated for 7 days. After the incubation was completed, according to operation instructions for a CellTiter-Glo kit (Promega, G7573), 75 μL of CTG solution, which had already been pre-melted and equilibrated to room temperature, was added to each well, and the mixture was uniformly mixed for 2 min using a microplate shaker. The plate was placed at room temperature for 10 min, and then […] signal values were measured using an Envision2104 plate reader (PerkinElmer). […] The IC50 value was calculated using GraphPad Prism software.

[3] = system: MDA-MB-436 subcutaneous transplanted tumor; experiment: Mouse MDA-MB-436 subcutaneous in vivo transplanted tumor model; design: species or system BALB/c nude mice
Description: Human breast cancer cells MDA-MB-436 were placed in Leibovitz's L-15 medium (supplemented with 10 μg/mL insulin, 16 μg/mL glutathione, 10% fetal bovine serum and 1% penicillin-streptomycin solution) and cultured at 37° C. Conventional digestion treatment with trypsin was performed twice a week for passage. When the cell saturation was 80%-90%, and the number reached the requirement, the cells were harvested, counted, and inoculated. BALB/c nude mice (from Beijing Vital River Laboratory Animal Technology Co., Ltd.) were subcutaneously inoculated with 0.2 mL (10×10^6) of MDA-MB-436 cells (plus matrigel, with the volume ratio of 1:1) on the right back. When the average tumor volume reached about 180 mm^3, grouping and administration were performed (marked as Day 0). The solvent group was given 5% DMSO, 30% PEG400 and 65% of 20% sulfobutyl-β-cyclodextrin solution, and the administration group was given the compound (Day 0-Day 10:1 mg/kg; Day 11-Day 28:0.1 mg/kg). The administration frequency was once a day, the administration cycle was 29 days, and the drug withdrawal observation period was set to 14 days. After grouping, the tumor diameter was measured twice a week with a vernier caliper. The formula for calculating the tumor volume was: V=0.5×a×b^2, where a and b represented the long and short diameters of the tumor, respectively.

[4] = Pharmacokinetic test in rats; format: in vivo, SD rats; settings: rat, i.g. 10 mg/kg
Description: • 1.1 Experimental animals: male SD rats, about 220 g, 6-8 weeks old, 6 rats/compound. Purchased from Chengdu Ddossy Experimental Animals Co., Ltd. • 1.2 Experimental design: on the day of the experiment, 6 SD rats were randomly grouped according to their body weights. The animals were fasted with water available for 12 to 14 h one day before the administration and were fed 4 h after the administration. [table] Before and after the administration, 0.15 mL of blood was taken from the orbit of the animals under isoflurane anesthesia and placed in an EDTAK2 centrifuge tube. The blood was centrifuged at 5000 rpm and 4° C. for 10 min to collect plasma. The blood collection time points for the intravenous administration group and intragastric administration group were: 0, 5 min, 15 min, 30 min, 1 h, 2 h, 4 h, 6 h, 8 h and 24 h. Before analysis and detection, all samples were stored at −80° C. The samples were analyzed quantitatively by LC-MS/MS.

Structure (SMILES): CCc1cc2ncc(CN3CCN(c4ccc(C(=O)NC5CC5)nc4)CC3)cc2[nH]c1=O [crystal form G, N-cyclopropyl-5-(4-((7-ethyl-6-oxo-5,6-dihydro-1,5-naphthyridin-3-yl)methyl)piperazin-1-yl)pyridine carboxamide]
- Maximum individual impurity ([1]; 0 d): 0.494%
- RRT 0.31 impurity ([1]; 0 d): 0.494%
- RRT 0.36 impurity ([1]; 0 d): 0.071%
- RRT 0.49 impurity ([1]; 0 d): 0.170%
- RRT 0.72 impurity ([1]; 0 d): 0.248%
- RRT 1.00 (purity by HPLC) ([1]; 0 d): 98.425%
- RRT 1.14 impurity ([1]; 0 d): 0.065%
- RRT 1.33 impurity ([1]; 0 d): 0.079%
- Total impurity ([1]; 0 d): 1.575%
- Maximum individual impurity ([1]; 40° C.-6 d): 0.438%
- RRT 0.31 impurity ([1]; 40° C.-6 d): 0.438%
- RRT 0.36 impurity ([1]; 40° C.-6 d): 0.097%
- RRT 0.49 impurity ([1]; 40° C.-6 d): 0.195%
- RRT 0.72 impurity ([1]; 40° C.-6 d): 0.241%
- RRT 1.00 (purity by HPLC) ([1]; 40° C.-6 d): 98.494%
- RRT 1.14 impurity ([1]; 40° C.-6 d): 0.071%
- RRT 1.33 impurity ([1]; 40° C.-6 d): 0.069%
- Total impurity ([1]; 40° C.-6 d): 1.506%
- Maximum individual impurity ([1]; 40° C.-10 d): 0.507%
- RRT 0.31 impurity ([1]; 40° C.-10 d): 0.507%
- RRT 0.36 impurity ([1]; 40° C.-10 d): 0.100%
- RRT 0.49 impurity ([1]; 40° C.-10 d): 0.194%
- RRT 0.72 impurity ([1]; 40° C.-10 d): 0.232%
- RRT 1.00 (purity by HPLC) ([1]; 40° C.-10 d): 98.459%
- RRT 1.14 impurity ([1]; 40° C.-10 d): 0.069%
- RRT 1.33 impurity ([1]; 40° C.-10 d): 0.061%
- Total impurity ([1]; 40° C.-10 d): 1.541%
- Maximum individual impurity ([1]; 40° C.-30 d): 0.467%
- RRT 0.31 impurity ([1]; 40° C.-30 d): 0.467%
- RRT 0.36 impurity ([1]; 40° C.-30 d): 0.115%
- RRT 0.49 impurity ([1]; 40° C.-30 d): 0.144%
- RRT 0.72 impurity ([1]; 40° C.-30 d): 0.252%
- RRT 1.00 (purity by HPLC) ([1]; 40° C.-30 d): 98.519%
- RRT 1.14 impurity ([1]; 40° C.-30 d): 0.077%
- RRT 1.33 impurity ([1]; 40° C.-30 d): 0.060%
- Total impurity ([1]; 40° C.-30 d): 1.481%
- Maximum individual impurity ([1]; 60° C.-6 d): 0.452%
- RRT 0.31 impurity ([1]; 60° C.-6 d): 0.452%
- RRT 0.36 impurity ([1]; 60° C.-6 d): 0.097%
- RRT 0.49 impurity ([1]; 60° C.-6 d): 0.193%
- RRT 0.72 impurity ([1]; 60° C.-6 d): 0.229%
- RRT 1.00 (purity by HPLC) ([1]; 60° C.-6 d): 98.522%
- RRT 1.14 impurity ([1]; 60° C.-6 d): 0.070%
- RRT 1.33 impurity ([1]; 60° C.-6 d): 0.064%
- Total impurity ([1]; 60° C.-6 d): 1.478%
- Maximum individual impurity ([1]; 60° C.-10 d): 0.498%
- RRT 0.31 impurity ([1]; 60° C.-10 d): 0.498%
- RRT 0.36 impurity ([1]; 60° C.-10 d): 0.103%
- RRT 0.49 impurity ([1]; 60° C.-10 d): 0.206%
- RRT 0.72 impurity ([1]; 60° C.-10 d): 0.247%
- RRT 1.00 (purity by HPLC) ([1]; 60° C.-10 d): 98.447%
- RRT 1.14 impurity ([1]; 60° C.-10 d): 0.068%
- RRT 1.33 impurity ([1]; 60° C.-10 d): 0.069%
- Total impurity ([1]; 60° C.-10 d): 1.553%
- Maximum individual impurity ([1]; 60° C.-30 d): 0.457%
- RRT 0.31 impurity ([1]; 60° C.-30 d): 0.457%
- RRT 0.36 impurity ([1]; 60° C.-30 d): 0.112%
- RRT 0.49 impurity ([1]; 60° C.-30 d): 0.145%
- RRT 0.72 impurity ([1]; 60° C.-30 d): 0.244%
- RRT 1.00 (purity by HPLC) ([1]; 60° C.-30 d): 98.499%
- RRT 1.14 impurity ([1]; 60° C.-30 d): 0.084%
- RRT 1.33 impurity ([1]; 60° C.-30 d): 0.056%
- Total impurity ([1]; 60° C.-30 d): 1.501%
- chemical stability ([1]; 92.5% RH, 40° C. and 60° C., up to 30 d): good chemical stability
- Maximum individual impurity ([1]; 92.5% RH-6 d): 0.468%
- RRT 0.31 impurity ([1]; 92.5% RH-6 d): 0.468%
- RRT 0.36 impurity ([1]; 92.5% RH-6 d): 0.107%
- RRT 0.49 impurity ([1]; 92.5% RH-6 d): 0.191%
- RRT 0.72 impurity ([1]; 92.5% RH-6 d): 0.244%
- RRT 1.00 (purity by HPLC) ([1]; 92.5% RH-6 d): 98.503%
- RRT 1.14 impurity ([1]; 92.5% RH-6 d): 0.068%
- RRT 1.33 impurity ([1]; 92.5% RH-6 d): 0.066%
- Total impurity ([1]; 92.5% RH-6 d): 1.497%
- Maximum individual impurity ([1]; 92.5% RH-10 d): 0.518%
- RRT 0.31 impurity ([1]; 92.5% RH-10 d): 0.518%
- RRT 0.36 impurity ([1]; 92.5% RH-10 d): 0.110%
- RRT 0.49 impurity ([1]; 92.5% RH-10 d): 0.206%
- RRT 0.72 impurity ([1]; 92.5% RH-10 d): 0.246%
- RRT 1.00 (purity by HPLC) ([1]; 92.5% RH-10 d): 98.358%
- RRT 1.14 impurity ([1]; 92.5% RH-10 d): 0.073%
- RRT 1.33 impurity ([1]; 92.5% RH-10 d): 0.066%
- Total impurity ([1]; 92.5% RH-10 d): 1.642%
- Maximum individual impurity ([1]; 92.5% RH-30 d): 0.475%
- RRT 0.31 impurity ([1]; 92.5% RH-30 d): 0.475%
- RRT 0.36 impurity ([1]; 92.5% RH-30 d): 0.099%
- RRT 0.49 impurity ([1]; 92.5% RH-30 d): 0.137%
- RRT 0.72 impurity ([1]; 92.5% RH-30 d): 0.243%
- RRT 1.00 (purity by HPLC) ([1]; 92.5% RH-30 d): 98.499%
- RRT 1.14 impurity ([1]; 92.5% RH-30 d): 0.075%
- RRT 1.33 impurity ([1]; 92.5% RH-30 d): 0.056%
- Total impurity ([1]; 92.5% RH-30 d): 1.501%

Structure (SMILES): CCc1cc2ncc(CN3CCN(c4ccc(C(=O)NC5CC5)nc4)CC3)cc2[nH]c1=O [Compound I, N-cyclopropyl-5-(4-((7-ethyl-6-oxo-5,6-dihydro-1,5-naphthyridin-3-yl)methyl)piperazin-1-yl)pyridine carboxamide]
- inhibition at 10 µM ([2]; 10 μM, read-out: Max inh. % 10 μM): 89.4%
- IC50 [2]: 2 nM
- tumor growth after the drug withdrawal ([3]; 14 days drug withdrawal observation): did not grow again
- body weight of the animals ([3]; Day 0-10 1 mg/kg, Day 11-28 0.1 mg/kg, once a day): no significant decrease
- TGI ([3]; after 28 days of administration, Day 0-10 1 mg/kg, Day 11-28 0.1 mg/kg, once a day): 119%
- F [4]: 98.8%
